Measurements taken from US20140186329A1, “POLYPHENOL ANALOGS TO TREAT ISCHEMIA” (priority 2011, published 2014).

Assays:
[1] = system: embolic strokes in rabbits; assay: Rabbit small clot embolic stroke model (RSCEM); assay type: in vivo; details: for therapeutic window in the RSCEM: time post-embolization
From the text: The ability of polyphenol analogs to treat, prevent and/or mitigate one or more symptoms of stroke can also be evaluated in in vivo assays. Such assays are known in the art and find use. One applicable in vivo screening assay is the rabbit clot embolic stroke model, discussed, e.g., in Lapchak, et al., Stroke (2002) 33(9):2279-84 and Lapchak, Exp Neurol. (2007) 205(2):407-13. The rabbit small clot embolic stroke model (RSCEM) and rabbit large clot embolic stroke model (RLCEM) can be used to determine the potential neuroprotective properties and safety profile of test polyphenol analogs after an embolic stroke. Rabbits are embolized by injecting small blood clots (RSCEM) or large blood clots (RLCEM) into the cerebral circulation. Behavioral analysis is conducted 24 hours later, allowing for determination of the effective stroke dose (ES50) or clot amount (milligrams) that produces severe neurological deficits in 50% of rabbits. A drug is considered neuroprotective if it increases the ES50 compared with the vehicle-treated control group.
Behavioral analysis was conducted at 24 hours following treatment, which allowed for the construction of quantal dose-response analysis curves. […] For the superimposed graphs, normal animals are plotted on the y-axis at 0% and abnormal animals are plotted at 100%. […] Moreover, CGA increased the P50 value (the clot dose that produces abnormality in 50% of a treatment group) compared to vehicle control. For a detailed discussion of the methods used to fit the quantal data to a sigmoidal curve, see Zivin and Waud. The pharmacology of chlorogenic acid in the rabbit small clot embolic stroke model (RSCEM) has been published (Lapchak, Exp Neurol. 2007 205(2):407-13). In the manuscript, it is shown that CGA has a therapeutic window of 60 minutes in the RSCEM. FIG. 2 presents the therapeutic window data.

[2] = cell based assays (not specified)
PC12 cells = assay: Glucose starvation; assay type: cell-based; details: MTT 24 hr
Protocol: (§1) FIG. 5 illustrates pharmacological effects of Baicalein on cultured cells. (A) Trophic factor withdrawal. Primary cortical neurons are prepared from 18-day-old rat embryos, and cultured at low cell density 1×10^6/35 mm dish, in serum containing medium with Baicalein (10-10,000 nM), and viability assayed 2 days later using a live-dead assay. (B) Excitotoxicity assay was done with E14 mouse primary cortical neuron cultures. After 11 days of culture, cells were exposed to 10 μM glutamate for 10 min, followed by the addition of varying concentrations of Baicalein (0.2-5 μM). Cell viability was determined 24 hr later with a standard MTT assay. (C) PC12 cells were glucose-deprived then were incubates in the absence or presence of Baicalein. Cell viability was determined 24 hr later using the MTT assay. (D) RCG-5 nerve cells were treated with 30 μM iodoacetic acid for 2 hr in the presence or absence of 5-25 μM Baicalein. In some experiments, Baicalein was added 2 hr after the ischemic event. Cell survival (%) was measured after 24 hr by the MTT assay. Baicalein added before (□) or 2 hr after ([…]) ischemia. […] When these cells are starved for glucose, there is approximately 70% maximal survival in the presence of NGF. Baicalein promotes over 80% survival (FIG. 5C).

primary cortical neurons = assay: Trophic factor withdrawal; assay type: cell-based, rat; details: serum-containing medium, 10-10,000 nM, 2 days
Protocol: as §1, with “These include trophic factor withdrawal (TFW), excitotoxicity, glucose starvation, and most importantly, in a chemical ischemia model. […] (FIG. 5A). Using a published excitotoxicity assay, Baicalein rescues about 35% of the” for “When these”, “cells” for “cells are starved for glucose, there is approximately 70% maximal survival in the presence of NGF. Baicalein promotes over 80% survival”, “5B).” for “5C).”

RCG-5 nerve cells = assay: Chemical ischemia model (IAA) in RCG-5 nerve cells; assay type: cell-based; details: 30 μM IAA 2 hr, 5-25 μM, also added 2 hrs after insult
Protocol: as §1

[3] = 50 mg/kg intravenously, 5 minutes following embolization, behavior at 24 hours
[4] = administered 1 hour following embolization
[5] = administered 3 hours following embolization

Compound	P50 value (clot dose that produces abnormality in 50% of a group) [1, 3]	improvement of behavior [1, 4]	improvement of behavior [1, 5]	therapeutic window in the RSCEM [1]	EC50 [2]	survival of glucose-starved cells (PC12 cells)	survival of low-density cultured cortical neurons (primary cortical neurons)	P50 value (clot dose that produces abnormality in 50% of a group) ([1]; 100 mg/kg subcutaneously, 60 minutes following embolization)	prevention of cell death in chemical ischemia model (RCG-5 nerve cells)
O=C(/C=C/c1ccc(O)c(O)c1)O[C@@H]1C[C@](O)(C(=O)O)C[C@@H](O)[C@H]1O [Chlorogenic Acid, 1,3,4,5-tetrahydroxy-cyclohexanecarboxylic acid 3-(3,4-dihydroxycinnamate)]	3.61 ± 0.52 mg	effective at improving behavior	neither improve behavior	60 min	–	–	–	–	–
O=c1c(O)c(-c2ccc(O)c(O)c2)oc2cc(O)ccc12 [Fisetin, 3,7,3′,4′-Tetrahydroxyflavone, reference compound]	2.53 ± 0.55 mg	–	–	–	2 to 5 µM	–	–	–	–
O=c1cc(-c2ccccc2)oc2cc(O)c(O)c(O)c12 [Baicalein, 5,6,7-trihydroxyflavone, reference compound]	–	effective at improving behavior	neither improve behavior	≥ 60 min	–	over 80%	dramatically promotes the survival	2.15 ± 0.12 mg	prevents cell death
